Columns and labels:
[1] = GABA–CTP BBB penetration experiment: GABA in plasma of mice by LC–MS; format: in vivo, mice (Kunming); conditions: male mice, one bolus intravenous injection via tail vein (GABA 50 mg/kg, GABA–CPP 10 mg/kg)
[2] = test system: mice; assay: Behavior of the mice after injection; format: in vivo, mice (Kunming); conditions: intravenous injection, GABA 50 mg/kg or GABA–CPP 10 mg/kg, symptom with GABA–CPP appeared a bit worse

GABA concentration in plasma within 2 min after injection [1]: 7985 ng/mL
GABA concentration in plasma within 1 h after injection [1]: 141 ng/mL
Structure (SMILES): NCCCC(=O)O [GABA, γ-aminobutyric acid]
behavior of the mice after injection [2]: quiet and sleepy behavior
